Experimental data as given in US20220110985A1, “NUTRITIONAL COMPOSITION COMPRISING 2'FUCOSYLLACTOSE AND 3'GALACTOSYLLACTOSE” (N.V. Nutricia, priority 2019, published 2022).
Marks after values point to notes of the source that are not given here.

What was measured:
[1] = test system: Caco-2 cell monolayer; experiment: DON-induced impairment of Caco-2 cell monolayer integrity (TEER, lucifer yellow flux); assay type: cell-based, human; settings: for effect on DON-induced loss of epithelial barrier integrity (TEER, LY flux), in words: 24 h pretreatment (GLs 0.75 wt. %; 2′-FL 1 mg/ml), then DON 4.2 μM 24 h
Method: Beta1,3′-galactosyl-lactose (beta3′-GL), beta1,4′-galactosyllactose (beta4′-GL) and beta1,6′-galactosyl-lactose (beta6′-GL) were obtained from Carbosynth (Berkshire, UK). Alpha1,3′-galactosyl-lactose (alpha3′-GL) was obtained from Elicityl (Crolles, France). Purified deoxydivalenol (DON) (D0156; Sigma Aldrich, St Luis, Mo., USA) was dissolved in pure ethanol and stored at −20° C. Human epithelial colorectal adenocarcinoma (Caco-2) cells were obtained from American […] (Code HTB-37) (Manasse, Va., USA, passage 90-102).
Caco-2 cells were used according to established methods. In brief: cells were cultured in Dulbecco's modified Eagle medium (DMEM) and seeded at a density of 0.3×10^5 cells into 0.3 cm^2 high pore density (0.4 μm) inserts with a polyethylene terephthalate membrane (BD Biosciences, Franklin Lakes, N.J., USA) placed in a 24-well plate. The Caco-2 cells were maintained in a humidified atmosphere of 95 air and 5% CO2 at 37° C.
Caco-2 cell monolayers were thus grown in a transwell system, which is a model for intestinal barrier function. The monolayers were pretreated for 24 h with different GLs, including beta3′-GL, alpha3′-GL, beta4′-GL and beta6′-GL in a concentration of 0.75 wt. % of the GL, before being exposed to the fungal toxin deoxynivalenol (DON), which is a trigger and model compound to impair intestinal barrier. DON was diluted to a final concentration of 4.2 μM in complete cell medium and added to the apical side as well as to the basolateral side of the transwell inserts. […] Incubation with DON was 24 h.
Measurements of the transepithelial electrical resistance (TEER) and lucifer yellow (LY) permeability were conducted to investigate barrier integrity. For TEER measurements a Millicel-ERS voltohmmeter connected to a pair of chopsticks electrodes was used to measure the TEER values. Results are expressed as a percentage of the initial value. For paracellular tracer flux assay the membrane impermeable lucifer yellow (LY) (Sigma, St Luis, Mo., USA) was added in a concentration of 16 μg/ml to the apical compartment in the transwell plate for 4 h, and the paracellular flux was determined by measuring the fluorescence intensity in the basolateral compartment with a spectrophotofluorimeter (FLUOstar Optima, BMG Labtech, Offenburg, Germany) set at excitation and emission wavelengths of 410 and 520 nm, respectively. Release of interleukin-8 (IL-8 or CXCL8), which is a typical marker for inflammation, was quantified in the medium of the apical side and the basolateral side of the Caco-2 transwell inserts in response to the treatments. CXCL8 concentrations were measured by using the human IL-8 ELISA assay (BD Biosciences, Pharmingem, San Diego, Calif., USA) according to manufacturer's instructions. For more details on materials and methods see Akbari et al, 2016, Eur J Nutr. 56(5):1919-1930.

[2] = test system: human PBMC, unstimulated; experiment: Cytokine production of unstimulated PBMC (IL10, CCL20); assay type: cell-based
Text: Isolation of PBMC from healthy donors: Human peripheral blood mononuclear cells (PBMC) from healthy donors were isolated from buffy coats (Sanquin, Amsterdam, the Netherlands). PBMC were obtained by centrifugation using Leucosep tubes (Greiner Bio-One). […] After lysis, the PBMC were resuspended in freezing medium (70% RPMI 1640 medium (Gibco, Thermo Fisher Technologies) supplemented with 10% heat-inactivated FCS and 100 U/ml penicillin-streptomycin, 20% heat-inactivated FCS and 10% DMSO (Sigma)) and cryopreserved. PBMC activation model: PBMC (0.2·10^6 cell/well) were cultured in 96-well flat bottom plates (Corning). For 24 hours the cells were pre-incubated with 2'-FL (Jennewein), 3'-GL (0-0.3% w/v; […] Sigma Aldrich) and combinations thereof. Subsequently, the cells were CD3/CD28-activated (Pelicluster CD3 and Pelicluster CD28, Sanquin) for an additional 24 hours. After incubation, IFNγ was measured by ELISA in the supernatants (see below). […] Roche) and/or 10% Triton (5 μl; negative control). […] Cytokine production of PBMC: PBMC were incubated with indicated reagents. After incubation, the supernatants were collected and IL2, IL6, IL10, IL13, IL21, TNFα, IFNγ, MIF, CCL1, CCL13, CCL17, CCL20, CCL22 and CXCL8-11 levels were measured by conducting a validated multiplex immunoassay based on Luminex technology (xMAP, Luminex Austin Tex. USA). Acquisition was conducted with the Biorad […] (Biorad laboratories, Hercules USA) in combination with xPONENT software version 4.2 (Luminex). Data was analyzed by 5-parametric curve fitting using Bio-Plex Manager software, version 6.1.1 (Biorad). After PBMC stimulation, cell culture supernatants were collected, after which cytokine responses were measured in order to test immune responsiveness of the cells. The levels of cytokines measured in stimulated conditions were corrected for the (low) levels of the cytokines measured in non-stimulated conditions. In addition, since each donor is reacting in its own efficiency onto the T cell stimulus, we calculated the individual index of cytokine response by dividing the intervention induced response by the basal stimulated response.

[3] = test system: T84 human intestinal epithelial cells; experiment: T84 monolayer barrier integrity (TEER) with IL-4; assay type: cell-based; settings: butyric acid 4 mM, TEER increase relative to t=0
Method: T84 human intestinal epithelial cells are commonly used to study intestinal barrier integrity in vitro. T84 cells (ATCC, USA) were cultured on 12 mm transwell inserts (0.4 μm, Corning Costrar, USA) in DMEM-F12 glutamax with penicillin-streptomycin (100 IU/ml), supplemented with 5% FBS-Hl. T84 cells were used 14 days after reaching confluence. Monolayers of T84 cultured on transwell filters were pre-incubated for 48 h with or without butyrate. These samples were subsequently incubated for an additional 48 h in the presence of IL-4 (25 ng/ml). IL-4 was added to the basolateral compartment; medium and additives were changed every 24 h.
Epithelial barrier integrity was assessed by measuring transepithelial resistance (TEER; Ω×cm^2) with the epithelial volt-ohm meter (EVOM; World Precision Instruments, Germany).
Results are shown in Table 5 where relative TEER values are presented. The 48 h and 96 h column is the TEER increase relative to t=0 value. IL-4 treatment disrupted the intestinal barrier function; however in the presence of butyrate this disruption was ameliorated.

[4] = test system: human peripheral blood mononuclear cells (PBMCs); experiment: PBMC cell activity (WST-1); assay type: cell-based; settings: after 24 h; non-stimulated and CD3/CD28 stimulated conditions
Method: Isolation of PBMC from healthy donors: Human peripheral blood mononuclear cells (PBMC) from healthy donors were isolated from buffy coats (Sanquin, Amsterdam, the Netherlands). PBMC were obtained by centrifugation using Leucosep tubes (Greiner Bio-One). PBMC were collected and washed in PBS (Gibco, Thermo Fisher Technologies)+2% heat-inactivated FCS (Invitrogen), followed by hypotonic lysis of erythrocytes with sterile lysis buffer (0.15 M NH4Cl, 0.01 M KHCO3 and 0.1 mM EDTA, pH of 7.4 at 4° C., all from Merck, Darmstadt, Germany). After lysis, the PBMC were resuspended in freezing medium (70% RPMI 1640 medium (Gibco, Thermo Fisher Technologies) supplemented with 10% heat-inactivated FCS and 100 U/ml penicillin-streptomycin, 20% heat-inactivated FCS and 10% DMSO (Sigma)) and cryopreserved.
PBMC activation model: PBMC (0.2·10^6 cell/well) were cultured in 96-well flat bottom plates (Corning). For 24 hours the cells were pre-incubated with 2′-FL (Jennewein), 3′-GL (0-0.3% w/v; Carbosynth) or sodium butyrate (0.2 mM; Sigma Aldrich) and combinations thereof. Subsequently, the cells were CD3/CD28-activated (Pelicluster CD3 and Pelicluster CD28, Sanquin) for an additional 24 hours. After incubation, IFNγ was measured by ELISA in the supernatants (see below). To determine cell activity after stimulation, PBMC were incubated with cell proliferation reagent WST-1 (10 μl; Roche) and/or 10% Triton (5 μl; negative control). After 3 hours, absorbance was measured at OD450 nm and OD650 nm and cell activity was calculated according to manufacturer's instructions.

[5] = Caco-2 monolayer, DON 4.2 μM, 2′-FL 1 mg/ml

CC1=C[C@H]2O[C@@H]3[C@H](O)C[C@](C)([C@@]2(CO)[C@H](O)C1=O)[C@]31CO1 [DON, deoxynivalenol]
Lucifer yellow flux [1, 5]: 530.8 (3.975)*** ng/ml (cm^2xh) | TEER (% of initial value) Mean (s.e.) [1, 5]: 34.33 (1.088)*** % of initial value

OC[C@H]1O[C@@H](OC[C@H]2O[C@@H](O[C@H]3[C@H](O)[C@@H](O)C(O)O[C@@H]3CO)[C@H](O)[C@@H](O)[C@H]2O)[C@H](O)[C@@H](O)[C@H]1O (stereo partly drawn) [beta6′-GL, Gal (beta 1-6)-Gal (beta 1-4)-Glc]
effect on DON-induced loss of epithelial barrier integrity (TEER, LY flux), in words [1]: did not show a significant effect

OC[C@H]1O[C@@H](O[C@@H]2[C@H](O)[C@@H](O)[C@H](O[C@H]3[C@H](O)[C@@H](O)C(O)O[C@@H]3CO)O[C@@H]2CO)[C@H](O)[C@@H](O)[C@H]1O (stereo partly drawn) [beta4′-GL, Gal (beta 1-4)-Gal (beta 1-4)-Glc]
effect on DON-induced loss of epithelial barrier integrity (TEER, LY flux), in words [1]: did not show a significant effect

OC[C@H]1O[C@H](O[C@H]2[C@@H](O)[C@@H](CO)O[C@@H](O[C@H]3[C@H](O)[C@@H](O)C(O)O[C@@H]3CO)[C@@H]2O)[C@H](O)[C@@H](O)[C@H]1O (stereo partly drawn) [alpha3′-GL, Gal (alpha 1-3)-Gal (beta 1-4)-Glc]
effect on DON-induced loss of epithelial barrier integrity (TEER, LY flux), in words [1]: did not prevent the DON-induced disrupted intestinal barrier

CCCC(=O)O [butyrate, butyric acid]
IL10 level as compared to blanc control, in words ([2]; 0.2% 2′-FL, 0.2 mM butyrate): did not have an effect | CCL20 level as compared to blanc control, in words ([2]; unstimulated PBMC): did not have a statistically significant effect | Relative IL10 level, mean (se) ([2]; unstimulated, 0.2% w/v 2′-FL, 0.2 mM butyrate, blanc = 1, observed): 1.911 (0.203) | Relative CCL 20 mean (s.e.) ([2]; unstimulated, 0.2% w/v 2′-FL, 0.1 w/v % 3′-GL, 0.2 mM butyrate, blanc = 1, observed): 1.053 (0.127) | % TEER at 48 h ([3]; 48 h pre-incubation): 79 (25) % | % TEER at 96 h (IL-4) ([3]; additional 48 h with IL-4 25 ng/ml): 26 (16) % | Immune cell activity as measured by WST, in words [4]: did not influence immune cell metabolic activity
